Molecules are shown by their SMILES.

In one experiment the target is T1, recombinant human NAE enzyme (Homo sapiens, UniProt Q8TBC4).
T1 construct: His (N); made in house; host or cells: Sf9 insect cells (baculovirus, Bac-to-Bac)
T1 sequence (Q8TBC4 1-463): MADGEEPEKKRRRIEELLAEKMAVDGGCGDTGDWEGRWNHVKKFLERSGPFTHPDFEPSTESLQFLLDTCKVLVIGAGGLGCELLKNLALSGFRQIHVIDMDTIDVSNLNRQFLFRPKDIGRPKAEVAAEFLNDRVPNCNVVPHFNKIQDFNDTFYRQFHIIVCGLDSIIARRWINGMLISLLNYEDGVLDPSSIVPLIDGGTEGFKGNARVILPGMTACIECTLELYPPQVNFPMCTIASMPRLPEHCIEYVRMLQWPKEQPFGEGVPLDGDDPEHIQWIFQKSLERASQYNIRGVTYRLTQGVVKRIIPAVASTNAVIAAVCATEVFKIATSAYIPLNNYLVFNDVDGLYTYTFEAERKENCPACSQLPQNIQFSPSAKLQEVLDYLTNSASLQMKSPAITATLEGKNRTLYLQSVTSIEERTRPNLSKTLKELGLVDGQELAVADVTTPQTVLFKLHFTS
T1 sequence (Q13564 1-534 partner): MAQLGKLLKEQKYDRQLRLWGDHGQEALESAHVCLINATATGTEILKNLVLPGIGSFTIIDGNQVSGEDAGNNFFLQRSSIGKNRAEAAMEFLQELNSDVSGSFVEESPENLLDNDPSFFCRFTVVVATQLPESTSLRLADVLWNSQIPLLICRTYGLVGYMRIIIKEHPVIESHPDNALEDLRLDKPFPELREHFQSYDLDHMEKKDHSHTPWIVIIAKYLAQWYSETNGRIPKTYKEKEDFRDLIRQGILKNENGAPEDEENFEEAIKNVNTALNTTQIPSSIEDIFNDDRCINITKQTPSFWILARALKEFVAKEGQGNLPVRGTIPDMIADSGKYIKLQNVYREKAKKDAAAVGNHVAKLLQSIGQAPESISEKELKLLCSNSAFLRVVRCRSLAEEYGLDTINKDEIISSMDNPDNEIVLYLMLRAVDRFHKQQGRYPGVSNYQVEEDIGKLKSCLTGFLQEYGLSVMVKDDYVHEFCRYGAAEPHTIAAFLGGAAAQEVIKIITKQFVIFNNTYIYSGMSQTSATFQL
As to the kind of experiment: Nedd8-Activating Enzyme (NAE) HTRF Assay. It is filed as biochemical. As to conditions: 20 μM ATP, bound given in nM. On the procedure:
Following manufacturer instructions, baculoviruses were generated with the Bac-to-Bac Expression System (Invitrogen) for the following proteins: untagged NAEα (APPBP1; NP_003896.1), N-terminally His-tagged NAEJ (UBE1C; NP_003959.3), untagged SAEα (SAE1; NP_005491.1), N-terminally His-tagged SAE3 (UBA2; NP_005490.1), N-terminally His-tagged murine UAE (UBE1X; NP_033483). NAEα/His-NAEβ and SAEα/His-SAEβ complexes were generated by co-infection of Sf9 cells, which were harvested after 48 hours. His-mUAE was generated by single infection of Sf9 cells and harvested after 72 hours. Expressed proteins were purified by affinity chromatography (Ni-NTA agarose, Qiagen) using standard buffers. Nedd8-Activating Enzyme (NAE) HTRF Assay. The NAE enzymatic reaction totaled 50 μL and contained 50 mM HEPES (pH 7.5), 0.05% BSA, 5 mM MgCl2, 20 μM ATP, 250 μM GSH, 0.01 μM Ubc12-GST, 0.075 μM Nedd8-Flag and 0.20 nM recombinant human NAE enzyme. The enzymatic reaction mixture, with and without compound inhibitor, was incubated at room temperature 24° C. for 105 minutes in a 384-well plate before termination with 25 μL of Stop/Detection buffer (0.1M HEPES pH 7.5, 0.05% Tween20, 20 mM EDTA, 410 mM KF, 0.53 nM Europium-Cryptate labeled monoclonal anti-FLAG M2 antibody (CisBio International) and 8.125 μg/mL PHYCOLINK goat anti-GST allophycocyanin (XL-APC) antibody (Prozyme)). After incubation for 1 hour at 24° C., quantification of the FRET was performed on the Analyst™ HT 96.384 (Molecular Devices).
On the technique in general: In TR-FRET formats the signal depends on donor and acceptor labels being close together.
As usually defined, the IC50 is the point on the concentration scale where inhibition reaches its midpoint. As for `NS(=O)(=O)OC[C@H]1C[C@@H](Nc2cc(N[C@H]3CCc4c(F)cccc43)ncn2)[C@H](O)[C@@H]1O` [Compound I-1, {(1R,2R,3S,4R)-4-[(6-{[(1S)-4-fluoro-2,3-dihydro-1H-inden-1-yl]amino}-pyrimidin-4-yl)-amino]-2,3-dihydroxycyclopentyl}methyl sulfamate], the half-maximal inhibitory concentration (IC50) is at most 500 nM.
In the case of `CO[C@H]1Cc2ccccc2[C@H]1Nc1cc(N[C@@H]2C[C@H](COS(N)(=O)=O)[C@@H](O)[C@H]2O)ncn1` [Compound I-2, {(1R,2R,3S,4R)-2,3-dihydroxy-4-[(6-{[(1R,2S)-2-methoxy-2,3-dihydro-1H-inden-1-yl]-amino}pyrimidin-4-yl)amino]cyclopentyl}methyl sulfamate], the IC50 was at most 500 nM.
The same measure, in the same setting: the figure for `NS(=O)(=O)OC[C@H]1C[C@@H](Nc2ncnc3[nH]cnc23)[C@H](O)[C@@H]1O` [Compound I-3, [(1R,2R,3S,4R)-2,3-dihydroxy-4-(9H-purin-6-ylamino)cyclopentyl]methyl sulfamate] is at most 500 nM; for `NS(=O)(=O)OC[C@H]1C[C@@H](Nc2ccnc(NCC3CCCCC3)n2)[C@H](O)[C@@H]1O` [Compound I-4, [(1R,2R,3S,4R)-4-({2-[(cyclohexylmethyl)amino]pyrimidin-4-yl}amino)-2,3-dihydroxycyclopentyl]methyl sulfamate] it is above 500 nM; for `NS(=O)(=O)OC[C@@H]1C[C@@H](Nc2cc(N[C@H]3CCc4ccccc43)ncn2)C[C@@H]1O` [Compound I-5, [(1S,2S,4R)-4-({6-[(1S)-2,3-dihydro-1H-inden-1-ylamino]pyrimidin-4-yl}amino)-2-hydroxycyclopentyl]methyl sulfamate] it is at most 500 nM.
In the case of `NS(=O)(=O)OC[C@H]1C[C@@H](Nc2cc(N[C@H]3CCc4c(F)ccc(F)c43)ncn2)[C@H](O)[C@@H]1O` [Compound I-6, {(1R,2R,3S,4R)-4-[(6-{[(1S)-4,7-difluoro-2,3-dihydro-1H-inden-1-yl]amino}-pyrimidin-4-yl)amino]-2,3-dihydroxycyclopentyl}methyl sulfamate], the IC50 was at most 500 nM.
For `NS(=O)(=O)OC[C@H]1C[C@@H](Nc2ccnc(NCc3ccccc3)n2)[C@H](O)[C@@H]1O` [Compound I-7, ((1R,2R,3S,4R)-4-{[2-(benzylamino)pyrimidin-4-yl]amino}-2,3-dihydroxycyclopentyl)methyl sulfamate], the IC50 was above 500 nM.
Still for that read-out and setting: as for `NS(=O)(=O)OC[C@H]1C[C@@H](Nc2cc(N[C@@H]3CCc4ccccc43)ncn2)[C@H](O)[C@@H]1O` [Compound I-8, [(1R,2R,3S,4R)-4-({6-[(1R)-2,3-dihydro-1H-inden-1-ylamino]pyrimidin-4-yl}-amino)-2,3-dihydroxycyclopentyl]methyl sulfamate], the figure is at most 500 nM; as for `NS(=O)(=O)OC[C@H]1C[C@@H](Nc2ncnc3[nH]c(-c4ccccc4)nc23)[C@H](O)[C@@H]1O` [Compound I-9, {(1R,2R,3S,4R)-2,3-dihydroxy-4-[(8-phenyl-9H-purin-6-yl)amino]cyclopentyl}-methyl sulfamate], at most 500 nM; as for `CC1CC(Nc2nccc(N[C@@H]3C[C@H](COS(N)(=O)=O)[C@@H](O)[C@H]3O)n2)c2ccccc21` (stereo partly drawn) [Compound I-10, [(1R,2R,3S,4R)-2,3-dihydroxy-4-({2-[(3-methyl-2,3-dihydro-1H-inden-1-yl)-amino]pyrimidin-4-yl}amino)cyclopentyl]methyl sulfamate], at most 500 nM.
Take `NS(=O)(=O)OC[C@@H]1C[C@@H](Nc2cc(N[C@H]3CCc4ccccc43)ncn2)[C@H](O)[C@@H]1O` [Compound I-11, [(1S,2R,3S,4R)-4-({6-[(1S)-2,3-dihydro-1H-inden-1-ylamino]pyrimidin-4-yl}-amino)-2,3-dihydroxycyclopentyl]methyl sulfamate]: the IC50 was at most 500 nM.
Turning to `NS(=O)(=O)OC[C@H]1C[C@@H](Nc2cc(N[C@H]3CCCc4ccccc43)ncn2)[C@H](O)[C@@H]1O` [Compound I-12, [(1R,2R,3S,4R)-2,3-dihydroxy-4-({6-[(1S)-1,2,3,4-tetrahydronaphthalen-1-ylamino]pyrimidin-4-yl}amino)cyclopentyl]methyl sulfamate], the IC50 was at most 500 nM.
Same read-out and setting: as for `NS(=O)(=O)OC[C@H]1C[C@@H](Nc2cc(NCC3CCCCC3)ncn2)[C@H](O)[C@@H]1O` [Compound I-14, [(1R,2R,3S,4R)-4-({6-[(cyclohexylmethyl)amino]pyrimidin-4-yl}amino)-2,3-dihydroxycyclopentyl]methyl sulfamate], the figure is at most 500 nM.
As to `CC1(C)C[C@H](Nc2nccc(N[C@@H]3C[C@H](COS(N)(=O)=O)[C@@H](O)[C@H]3O)n2)c2ccccc21` [Compound I-15, {(1R,2R,3S,4R)-4-[(2-{[(1S)-3,3-dimethyl-2,3-dihydro-1H-inden-1-yl]amino}-pyrimidin-4-yl)amino]-2,3-dihydroxycyclopentyl}methyl sulfamate], the IC50 was at most 500 nM.
Turning to `NS(=O)(=O)OC[C@H]1C[C@@H](NC(=O)c2cccnc2)[C@H](O)[C@@H]1O` [Compound I-16, {(1R,2R,3S,4R)-2,3-dihydroxy-4-[(pyridin-3-ylcarbonyl)amino]cyclopentyl}-methyl sulfamate], the IC50 is above 500 nM.
Take `NS(=O)(=O)OC[C@H]1C[C@@H](Nc2cc(N[C@H]3CCc4cc(F)c(F)cc43)ncn2)[C@H](O)[C@@H]1O` [Compound I-17, {(1R,2R,3S,4R)-4-[(6-{[(1S)-5,6-difluoro-2,3-dihydro-1H-inden-1-yl]amino}-pyrimidin-4-yl)amino]-2,3-dihydroxycyclopentyl}methyl sulfamate]: the 50% inhibitory concentration (IC50) is at most 500 nM.
For the compound `Cc1nc(N[C@H]2CCc3ccccc32)cc(N[C@@H]2C[C@H](COS(N)(=O)=O)[C@@H](O)[C@H]2O)n1` [Compound I-18, [(1R,2R,3S,4R)-4-({6-[(1S)-2,3-dihydro-1H-inden-1-ylamino]-2-methylpyrimidin-4-yl}-amino)-2,3-dihydroxycyclopentyl]methyl sulfamate], the IC50 is at most 500 nM.
In the case of `NS(=O)(=O)OC[C@H]1C[C@@H](Nc2cc(N[C@H]3CCc4cc(Cl)ccc43)ncn2)[C@H](O)[C@@H]1O` [Compound I-19, {(1R,2R,3S,4R)-4-[(6-{[(1S)-5-chloro-2,3-dihydro-1H-inden-1-yl]amino}-pyrimidin-4-yl)-amino]-2,3-dihydroxycyclopentyl}methyl sulfamate], the IC50 was at most 500 nM.
Regarding `CC1(C)C[C@H](Nc2cc(N[C@@H]3C[C@H](COS(N)(=O)=O)[C@@H](O)[C@H]3O)ncn2)c2ccccc21` [Compound I-21, {(1R,2R,3S,4R)-4-[(6-{[(1S)-3,3-dimethyl-2,3-dihydro-1H-inden-1-yl]amino}-pyrimidin-4-yl)amino]-2,3-dihydroxycyclopentyl}methyl sulfamate], the IC50 is at most 500 nM.

Still in this experiment, the particulars now being: 20 μM ATP, bound given in μM.
With `NS(=O)(=O)OC[C@H]1C[C@@H](Nc2ccnc(NCC3CCCCC3)n2)[C@H](O)[C@@H]1O` [Compound I-4, [(1R,2R,3S,4R)-4-({2-[(cyclohexylmethyl)amino]pyrimidin-4-yl}amino)-2,3-dihydroxycyclopentyl]methyl sulfamate], the IC50 was below 10000 nM.
Regarding `NS(=O)(=O)OC[C@H]1C[C@@H](Nc2ccnc(NCc3ccccc3)n2)[C@H](O)[C@@H]1O` [Compound I-7, ((1R,2R,3S,4R)-4-{[2-(benzylamino)pyrimidin-4-yl]amino}-2,3-dihydroxycyclopentyl)methyl sulfamate], the IC50 is below 10000 nM.
For `Cc1nc(N)cc(N[C@@H]2C[C@H](COS(N)(=O)=O)[C@@H](O)[C@H]2O)n1` [Compound I-13, {(1R,2R,3S,4R)-4-[(6-amino-2-methylpyrimidin-4-yl)amino]-2,3-dihydroxycyclopentyl}methyl sulfamate], the IC50 is above 10000 nM.
For the compound `NS(=O)(=O)OC[C@H]1C[C@@H](NC(=O)c2cccnc2)[C@H](O)[C@@H]1O` [Compound I-16, {(1R,2R,3S,4R)-2,3-dihydroxy-4-[(pyridin-3-ylcarbonyl)amino]cyclopentyl}-methyl sulfamate], the IC50 was below 10000 nM.
On the same count and under the same terms, as for `CN(Cc1ccccc1)c1nccc(N[C@@H]2C[C@H](COS(N)(=O)=O)[C@@H](O)[C@H]2O)n1` [Compound I-20, [(1R,2R,3S,4R)-4-({2-[benzyl(methyl)amino]pyrimidin-4-yl}amino)-2,3-dihydroxycyclopentyl]methyl sulfamate], the figure is above 10000 nM.
